We go through one compound from patent US20120189641A1, “COMBINATION ANTI-CANCER THERAPY” (OSI PHARMACEUTICALS, LLC, priority 2009, published 2012).

In experiment [1] the test system is IGF-1R and IR. Description: Biochemical potency against IGF-1R and IR. The following applies: comparison of IGF-1R and IR.
Experiment [2] concerns the target T1, IGF-1R (Homo sapiens, UniProt P08069).
T1 construct: endogenous in cells; host or cells: A673, H322, HT-29 tumor cells
Put plainly: IGF-1R phosphorylation (pIGF-1R) in tumor cells, RTK capture array. It counts as cell-based. The following applies: OSI-906 3 uM, 24 hours. From the text:
The media was removed, cells were washed two times with PBS, and cells were lysed as previously described.

In experiment [3] the test system is Akt pathway. Description: Downstream signaling (pAkt, pErk) in tumor cell lysates, Western blotting. The following applies: H322 NSCLC and HT-29 CRC cells; OSI-906 3 uM or MAB-391 2 ug/ml; 24 hours. It counts as cell-based, human. As for the experimental part: Cell extracts were prepared by detergent lysis (50 mM Tris-HCl, pH 8.0, 150 mM NaCl, 1% NP-40, 0.5% sodium deoxycholate, 0.1% SDS, containing protease inhibitor (P8340, Sigma, St. Louis, Mo.) and phosphatase inhibitor (P5726, Sigma, St. Louis, Mo.) cocktails. The soluble protein concentration was determined by micro-BSA assay (Pierce, Rockford Ill.). Protein immunodetection was performed by electrophoretic transfer of SDS-PAGE separated proteins to nitrocellulose, incubation with antibody, and chemiluminescent second step detection (PicoWest; Pierce, Rockford, Ill.). The antibodies included: phospho-Akt(473) and total Akt. Both antibodies were obtained from Cell Signaling Technology, Inc. (Danvers, Mass.). For analysis of an agent's effect on the phosphorylation of downstream signaling proteins, cell lines were grown to approximately 70% confluency, at which time the indicated agent was added at the indicated concentration, and cells were incubated at 37° C. for 24 hours. The media was removed, cells were washed two times with PBS, and cells were lysed as previously described.
Background: Immunoblotting shows a protein as a band on a membrane.

Structures are written as SMILES. Entries after “also recorded” stand apart in the source; their conditions may differ.

T1 sequence (P08069 31-1367): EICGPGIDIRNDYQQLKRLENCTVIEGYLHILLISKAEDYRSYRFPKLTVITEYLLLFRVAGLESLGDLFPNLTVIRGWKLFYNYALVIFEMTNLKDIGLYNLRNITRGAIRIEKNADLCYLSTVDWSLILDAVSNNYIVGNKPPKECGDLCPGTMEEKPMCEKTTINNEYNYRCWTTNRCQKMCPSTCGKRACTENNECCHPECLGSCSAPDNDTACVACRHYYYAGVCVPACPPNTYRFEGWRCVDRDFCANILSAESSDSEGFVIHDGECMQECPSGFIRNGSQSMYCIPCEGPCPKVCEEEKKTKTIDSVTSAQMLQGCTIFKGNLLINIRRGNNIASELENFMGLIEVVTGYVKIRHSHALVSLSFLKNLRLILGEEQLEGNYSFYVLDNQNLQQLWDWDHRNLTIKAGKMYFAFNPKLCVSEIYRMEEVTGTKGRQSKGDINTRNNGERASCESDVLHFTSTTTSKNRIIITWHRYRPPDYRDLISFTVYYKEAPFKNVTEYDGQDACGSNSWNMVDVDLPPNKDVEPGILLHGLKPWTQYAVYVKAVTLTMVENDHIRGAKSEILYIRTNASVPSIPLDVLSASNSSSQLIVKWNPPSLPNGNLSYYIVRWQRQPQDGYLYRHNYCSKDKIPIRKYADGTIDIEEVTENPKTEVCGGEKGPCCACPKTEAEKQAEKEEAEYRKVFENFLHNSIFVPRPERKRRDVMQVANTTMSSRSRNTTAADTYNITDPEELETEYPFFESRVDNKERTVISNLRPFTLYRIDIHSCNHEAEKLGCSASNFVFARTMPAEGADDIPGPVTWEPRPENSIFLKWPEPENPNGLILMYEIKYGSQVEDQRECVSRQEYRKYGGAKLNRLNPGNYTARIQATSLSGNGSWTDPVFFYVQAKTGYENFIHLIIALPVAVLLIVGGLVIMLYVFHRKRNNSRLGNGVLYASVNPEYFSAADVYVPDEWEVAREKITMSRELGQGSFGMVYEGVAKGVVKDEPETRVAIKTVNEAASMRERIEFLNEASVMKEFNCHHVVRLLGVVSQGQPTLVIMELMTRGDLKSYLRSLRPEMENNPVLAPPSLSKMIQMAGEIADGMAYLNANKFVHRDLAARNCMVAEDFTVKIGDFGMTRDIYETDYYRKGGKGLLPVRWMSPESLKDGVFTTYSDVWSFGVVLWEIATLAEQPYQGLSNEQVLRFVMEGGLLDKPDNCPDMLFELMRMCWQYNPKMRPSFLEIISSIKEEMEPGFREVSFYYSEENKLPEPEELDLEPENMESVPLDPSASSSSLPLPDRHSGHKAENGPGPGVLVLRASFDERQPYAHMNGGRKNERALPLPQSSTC

On to `C[C@]1(O)C[C@@H](c2nc(-c3ccc4ccc(-c5ccccc5)nc4c3)c3c(N)nccn32)C1` [OSI-906, cis-3-[8-amino-1-(2-phenyl-quinolin-7-yl)-imidazo[1,5-a]pyrazin-3-yl]-1-methyl-cyclobutanol], for which the “biochemical potencies against IGF-1R and IR” value in experiment [1] is reported as “similar”. Further, the “inhibition of IGF-1R (pIGF-1R)” value in experiment [2] (A673 Ewing's Sarcoma cells) was “inhibits both IR and IGF-1R”. For the same compound, the “inhibition of pIGF-1R” value in experiment [2] (H322 and HT-29 cells (FIG. 2)) was “robust inhibition of both pIR and pIGF-1R”. Besides, the “inhibition of the Akt pathway (pAkt)” value in experiment [3] is “greater blockade of the Akt pathway; also recorded: greater capacity to inhibit the Akt pathway”.
